Reference: patent US11975105B2 (EMPROS PHARMA AB, priority 2014, dated 2024)
Like-named read-outs stand apart in the source and are kept apart here.

Experiments:
[1] = pH dependent degradation when solubility from a powder was investigated at 37° C.; assay type: physicochemical; details: FIG. 1A-B
[2] = cited from earlier work
[3] = cited from earlier work; for fraction of the dose absorbed: oral administration
[4] = cited from earlier work; for additional weight loss relative to placebo: at one year
[5] = cited from earlier work; for frequency of side effects, comparative: human, in vivo

## CCCCCCCCCCCC(CC1OC(=O)[C@H]1CCCCCC)OC(=O)C(CC(C)C)NC=O (stereo in doubt) [orlistat, (S)—((S)-1-((2S,3S)-3-Hexyl-4-oxooxetan-2-yl)tridecan-2-yl) 2-formamido-4-methylpentanoate]
[1]
  pH dependent degradation: A similar tendency
[2]
  log P: 8.5
  solubility in water: practically insoluble in water
[2]; listed as Orlistat
  log P: 8.4
[3]; conventional oral dosage form
  plasma exposure: < 5 ng/mL
[3]
  fraction of the dose absorbed: < 3%
[4]
  additional weight loss relative to placebo: ~3%
[4]; best case scenario, placebo 6%
  relative weight loss: 10%
[5]; clinical trials
  patients complaining about GI side-effects (diarrhea, oily spottings, fecal urgency): ≥ 25%

## CCCCCCCCCCCCCCCCOc1nc2ccc(C)cc2c(=O)o1 [cetilistat]
[5]
  frequency of side effects, comparative: much lower frequency of side effects

## C[C@H]1CNCCc2ccc(Cl)cc21 [lorcaserin]
[4]
  additional weight loss relative to placebo: ~3%
[4]; human, in vivo
  decrease of body weight more than placebo: about 3.2 kg
  decrease of body weight more than placebo, of initial body weight: about 3.2%

## OCCN1C[C@H](O)[C@@H](O)[C@H](O)[C@H]1CO [miglitol]
[3]
  fraction of the dose absorbed: 100%

## OCC(CO)N[C@H]1C[C@](O)(CO)[C@@H](O)[C@H](O)[C@H]1O [voglibose]
[3]
  fraction of the dose absorbed: negligibly absorbed
[5]
  frequency of side effects, comparative: lower frequency of GI side effects compared to acarbose
